Results as given in patent publication US20240109853A1 (Shanghai Yao Yuan Biotechnology Co., Ltd., priority 2020, published 2024).

Biological target: ALPK1 (Homo sapiens (Human), UniProt Q96QP1)
Test: ALPK1 in vitro kinase assay (HTRF of TIFA phosphorylation)
Type: biochemical
Conditions: not given
From the text: In embodiments, a compound of Formula I, or a subembodiment described herein, is an inhibitor of ALPK1 as measured, for example, in an in vitro kinase assay, or an assay designed to measure the activation of downstream targets of ALPK1 pathway activation, for example NFkB transcriptional activation and the secretion of proinflammatory cytokines and chemokines, such as IL-8, which is also referred to as CXCL-8. In general, the computer program XL fit was used for data analysis, including non-linear regression analysis. The half maximal inhibitory concentration (IC50) was used as the measure of a compound's effectiveness in the assays. IC50 values were determined using the following logistic equation Y=min+(max−min)/(1+(X/IC50^−hillslpoe), where Y is the value at the compound concentration, X. The concentration response curve fitting was conducted using GraphPad Prism version 6.00 software.
ALPK1 kinase activity was measured in an in vitro assay using ADP-Heptose as the ALPK1 ligand and activator of its kinase activity and TIFA protein as the ALPK1 phosphorylation substrate. Since phosphorylated TIFA proteins oligomerize, Homogeneous Time-Resolved Fluorescence (HTRF) was used to measure protein:protein interaction between HA-tagged TIFA proteins as an indicator of TIFA phosphorylation.
In brief, dose-response studies were performed with HEK293 cells cultured in Dulbecco's Modified Eagle Medium (DMEM) supplemented 10% fetal bovine serum (FBS, Hyclone™) containing antibiotics (pen/strep, G418) in 384-well assay plates. Each well contained 0.1 mg TIFA, ALPK1 (2 nM final concentration in reaction mixture) and kinase buffer (100 mM of HEPES pH 7.4, 4 mM DTT, 40 mM MgCl2, 20 mM of β-Glycerol phosphate disodium salt, 0.4 mM of Na3VO4, 0.16 mg/mL). Titrations of the test compounds were prepared in dimethylsulphoxide (DMSO). The reaction was initiated by addition of ATP and ADP-Heptose.
For HTRF, samples were incubated with a Tb cryptate-labeled anti-HA antibody for capturing HA-tagged proteins according to the manufacturer's instructions (PerkinElmer™, CisBio™) and the fluorescence signal was quantified (Tecan Infinite F NANO+). HTRF signals were calculated as the HTRF ratio (ratio of fluorescence measured at 665 nm and 620 nm)×104 (thereby using the signal at 620 nm as an internal standard).
IC50 values were determined using 3- or 4-parameter logistic equation using GraphPad Prism version 6.00. The reference compound, A027, was used as a positive control for each plate.

Sequence of ALPK1 (Q96QP1 whole entry): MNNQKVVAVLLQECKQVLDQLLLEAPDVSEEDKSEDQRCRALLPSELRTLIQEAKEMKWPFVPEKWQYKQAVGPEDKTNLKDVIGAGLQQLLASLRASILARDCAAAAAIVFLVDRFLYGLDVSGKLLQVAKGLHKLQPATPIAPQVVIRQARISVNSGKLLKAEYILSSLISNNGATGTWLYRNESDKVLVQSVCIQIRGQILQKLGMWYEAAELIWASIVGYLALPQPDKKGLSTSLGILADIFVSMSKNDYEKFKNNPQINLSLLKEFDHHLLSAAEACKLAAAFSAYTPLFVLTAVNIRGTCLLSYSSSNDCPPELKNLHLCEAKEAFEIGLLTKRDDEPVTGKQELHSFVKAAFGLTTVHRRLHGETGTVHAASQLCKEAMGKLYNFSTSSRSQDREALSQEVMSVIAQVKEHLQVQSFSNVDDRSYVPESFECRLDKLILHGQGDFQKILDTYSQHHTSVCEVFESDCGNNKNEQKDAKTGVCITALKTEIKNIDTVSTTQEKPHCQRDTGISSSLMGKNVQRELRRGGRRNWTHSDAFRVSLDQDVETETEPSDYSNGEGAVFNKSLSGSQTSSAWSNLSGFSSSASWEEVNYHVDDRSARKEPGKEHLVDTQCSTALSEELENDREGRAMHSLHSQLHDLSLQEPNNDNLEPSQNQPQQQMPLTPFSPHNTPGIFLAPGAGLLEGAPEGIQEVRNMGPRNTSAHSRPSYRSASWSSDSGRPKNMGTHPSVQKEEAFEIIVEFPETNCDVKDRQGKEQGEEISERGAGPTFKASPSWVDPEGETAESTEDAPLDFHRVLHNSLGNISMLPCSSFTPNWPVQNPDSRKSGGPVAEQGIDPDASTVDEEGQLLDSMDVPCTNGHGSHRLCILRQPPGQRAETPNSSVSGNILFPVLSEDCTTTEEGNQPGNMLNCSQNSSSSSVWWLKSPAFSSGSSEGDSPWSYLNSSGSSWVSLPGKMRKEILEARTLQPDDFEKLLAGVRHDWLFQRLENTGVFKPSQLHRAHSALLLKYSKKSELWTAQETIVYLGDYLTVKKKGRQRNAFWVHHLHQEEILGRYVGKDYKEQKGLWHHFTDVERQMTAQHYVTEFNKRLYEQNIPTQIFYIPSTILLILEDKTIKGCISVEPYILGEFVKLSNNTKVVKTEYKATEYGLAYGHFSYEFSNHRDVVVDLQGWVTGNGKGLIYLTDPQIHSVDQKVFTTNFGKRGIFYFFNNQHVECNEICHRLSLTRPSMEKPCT

Row | Compound | IC50 [nM]
1 | [2H]C([2H])(O)CNC(=O)Nc1nc([C@](C)(C#C)c2ccc(Cl)cc2)cs1 (single isomer, unassigned) [Example A320, 1-[4-[1-(4-chlorophenyl)-1-methyl-prop-2-ynyl]thiazol-2-yl]-3-(2,2-dideuterio-2-hydroxy-ethyl)urea] | 44
2 | CC(C)(c1ccc(Br)cc1)c1csc(NC(=O)NCc2ccc(N3CCC(C(N)=O)CC3)cc2)n1 [Example A006, 1-(4-((3-(4-(2-(4-bromophenyl)propan-2-yl)thiazol-2-yl)ureido)methyl)phenyl) piperidine-4-carboxamide] | 104
3 | CC1CNCCN1c1ccc(CNC(=O)Nc2nc(C(C)(C)c3ccc(Br)cc3)cs2)cc1 (centres unmarked) [Example A029, 1-(4-(2-(4-bromophenyl)propan-2-yl)thiazol-2-yl)-3-(4-(2-methylpiperazin-1-yl)benzyl)urea] | 73

Same assay, conditions: ALPK1 2 nM, TIFA substrate, ADP-Heptose activator, HTRF readout

Row | Compound | IC50 [nM]
4 | C#CC(C)(c1ccc(Br)cc1)c1csc(NC(=O)[C@H]2C[C@H](CO)C2)n1 (mixture of isomers) [Example D005, rac-(1r,3r)-N-(4-(2-(4-bromophenyl)but-3-yn-2-yl)thiazol-2-yl)-3-(hydroxymethyl)cyclobutanecarboxamide] | 98
5 | C#CC(C)(c1ccc(Br)cc1)c1csc(NC(=O)[C@H]2C[C@@H](CO)C2)n1 (mixture of isomers) [Example D006, rac-(1s,3s)-N-(4-(2-(4-bromophenyl)but-3-yn-2-yl)thiazol-2-yl)-3-(hydroxymethyl)cyclobutanecarboxamide] | 40
6 | C#C[C@@](C)(c1ccc(F)cc1)c1csc(NC(=O)c2ccc(N3CCNCC3CO)cc2)n1 (stereo in doubt) [Example B069, N-[4-[1-(4-fluorophenyl)-1-methyl-prop-2-ynyl]thiazol-2-yl]-4-[2-(hydroxymethyl)piperazin-1-yl]benzamide] | 20
7 | C#C[C@](C)(c1ccc(F)cc1)c1csc(NC(=O)c2ccc(N3CCNCC3CO)cc2)n1 (stereo in doubt) [Example B070, N-[4-[1-(4-fluorophenyl)-1-methyl-prop-2-ynyl]thiazol-2-yl]-4-[2-(hydroxymethyl)piperazin-1-yl]benzamide] | 169
8 | C#C[C@@](C)(c1ccc(F)cc1)c1csc(NC(=O)c2ccc(N3CCNCC3CO)cc2)n1 (stereo in doubt) [Example B071, N-[4-[1-(4-fluorophenyl)-1-methyl-prop-2-ynyl]thiazol-2-yl]-4-[2-(hydroxymethyl)piperazin-1-yl]benzamide] | 60
9 | C#C[C@](C)(c1ccc(F)cc1)c1csc(NC(=O)c2ccc(N3CCNCC3CO)cc2)n1 (stereo in doubt) [Example B072, N-[4-[1-(4-fluorophenyl)-1-methyl-prop-2-ynyl]thiazol-2-yl]-4-[2-(hydroxymethyl)piperazin-1-yl]benzamide] | 260
10 | C#C[C@@](C)(c1ccc(Cl)cc1)c1csc(NC(=O)c2ccc(N3CCNC(CO)C3)cc2)n1 (stereo in doubt) [Example B077, N-(4-(2-(4-chlorophenyl)but-3-yn-2-yl)thiazol-2-yl)-4-(3-(hydroxymethyl)piperazin-1-yl)benzamide] | 90
11 | C#C[C@](C)(c1ccc(Cl)cc1)c1csc(NC(=O)c2c(F)cc(N3CCC(N)C3)cc2F)n1 (stereo in doubt) [Example B085, 4-(3-aminopyrrolidin-1-yl)-N-(4-(2-(4-chlorophenyl)but-3-yn-2-yl)thiazol-2-yl)-2,6-difluorobenzamide] | 395
12 | C#C[C@@](C)(c1ccc(Cl)cc1)c1csc(NC(=O)c2c(F)cc(N3CCC(N)C3)cc2F)n1 (stereo in doubt) [Example B087, 4-(3-aminopyrrolidin-1-yl)-N-(4-(2-(4-chlorophenyl)but-3-yn-2-yl)thiazol-2-yl)-2,6-difluorobenzamide] | 38
13 | C#C[C@@](C)(c1ccc(Cl)cc1)c1csc(NC(=O)c2c(F)cc(N3CCC(N)C3)cc2F)n1 (stereo in doubt) [Example B088, 4-(3-aminopyrrolidin-1-yl)-N-(4-(2-(4-chlorophenyl)but-3-yn-2-yl)thiazol-2-yl)-2,6-difluorobenzamide] | 42
14 | C#C[C@](C)(c1ccc(F)cc1)c1csc(NC(=O)c2c(F)cc(N3CCC(N)C3)cc2F)n1 (stereo in doubt) [Example B089, 4-(3-aminopyrrolidin-1-yl)-2,6-difluoro-N-(4-(2-(4-fluorophenyl)but-3-yn-2-yl)thiazol-2-yl)benzamide] | 681
15 | C#C[C@@](C)(c1ccc(F)cc1)c1csc(NC(=O)c2c(F)cc(N3CCC(N)C3)cc2F)n1 (stereo in doubt) [Example B090, 4-(3-aminopyrrolidin-1-yl)-2,6-difluoro-N-(4-(2-(4-fluorophenyl)but-3-yn-2-yl)thiazol-2-yl)benzamide] | 107
16 | C#C[C@@](C)(c1ccc(F)cc1)c1csc(NC(=O)c2c(F)cc(N3CCC(N)C3)cc2F)n1 (stereo in doubt) [Example B091, 4-(3-aminopyrrolidin-1-yl)-2,6-difluoro-N-(4-(2-(4-fluorophenyl)but-3-yn-2-yl)thiazol-2-yl)benzamide] | 65
17 | C#C[C@@](C)(c1ccc(Cl)cc1)c1csc(NC(=O)c2c(F)cc(N3CCNCC3CO)cc2F)n1 (stereo in doubt) [Example B097, N-[4-[1-(4-chlorophenyl)-1-methyl-prop-2-ynyl]thiazol-2-yl]-2,6-difluoro-4-[2-(hydroxymethyl)piperazin-1-yl]benzamide] | 119
18 | C#C[C@](C)(c1ccc(Cl)cc1)c1csc(NC(=O)c2c(F)cc(N3CCNCC3CO)cc2F)n1 (stereo in doubt) [Example B098, N-[4-[1-(4-chlorophenyl)-1-methyl-prop-2-ynyl]thiazol-2-yl]-2,6-difluoro-4-[2-(hydroxymethyl)piperazin-1-yl]benzamide] | 20
19 | C#C[C@@](C)(c1ccc(OC)cc1)c1csc(NC(=O)c2c(F)cc(N3CCNCC3)cc2F)n1 (stereo in doubt) [Example C036, 2,6-difluoro-N-[4-[1-(4-methoxyphenyl)-1-methyl-prop-2-ynyl]thiazol-2-yl]-4-piperazin-1-yl-benzamide] | 67
20 | C#C[C@@](C)(c1csc(NC(=O)c2c(F)cc(N3CCNCC3)cc2F)n1)c1ccc(Cl)cc1F (stereo in doubt) [Example C043, N-(4-(2-(4-chloro-2-fluorophenyl)but-3-yn-2-yl)thiazol-2-yl)-2,6-difluoro-4-(piperazin-1-yl)benzamide] | 285
21 | C#C[C@](C)(c1csc(NC(=O)c2c(F)cc(N3CCNCC3)cc2F)n1)c1ccc(Cl)cc1F (stereo in doubt) [Example C044, N-(4-(2-(4-chloro-2-fluorophenyl)but-3-yn-2-yl)thiazol-2-yl)-2,6-difluoro-4-(piperazin-1-yl)benzamide] | 25
22 | C#C[C@](C)(c1ccc(Cl)cc1)c1nc(NC(=O)c2c(F)cc(N3CCNCC3)cc2F)sc1Cl (stereo in doubt) [Example C049, N-(5-chloro-4-(2-(4-chlorophenyl)but-3-yn-2-yl)thiazol-2-yl)-2,6-difluoro-4-(piperazin-1-yl)benzamide] | 4520
23 | C#C[C@@](C)(c1ccc(Cl)cc1)c1nc(NC(=O)c2c(F)cc(N3CCNCC3)cc2F)sc1Cl (stereo in doubt) [Example C050, N-(5-chloro-4-(2-(4-chlorophenyl)but-3-yn-2-yl)thiazol-2-yl)-2,6-difluoro-4-(piperazin-1-yl)benzamide] | 923
